From the supplement of paper PMC10307832

What was measured:
Experiment in all cases: relative viability (nuclei count vs DMSO), 5 days (fraction); higher = more cells survive
A-427 = test system: A-427
Procedure, shortened: (§1)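 Lung cancer cell lines in 1536-well plates got either a single drug or a fixed anchor-drug dose together with five library-drug doses (not always all listed) in √10 steps, by pin tool, on the day after seeding. Nuclei were counted after 5 days, and relative viability is the treated-to-vehicle ratio of nuclei counts. Values are medians of duplicate plates.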

COR-L 105 = test system: COR-L 105
Procedure, shortened: as §1

EPLC-272H = test system: EPLC-272H
Procedure, shortened: as §1

HOP-62 = test system: HOP-62
Procedure, shortened: as §1

LC-2-ad = test system: LC-2-ad
Procedure, shortened: as §1

LCLC-97TM1 = test system: LCLC-97TM1
Procedure, shortened: as §1

LU99A = test system: LU99A
Procedure, shortened: as §1

LXF-289 = test system: LXF-289
Procedure, shortened: as §1

NCI-H1755 = test system: NCI-H1755
Procedure, shortened: as §1

NCI-H1792 = test system: NCI-H1792
Procedure, shortened: as §1

NCI-H1793 = test system: NCI-H1793
Procedure, shortened: as §1

NCI-H1915 = test system: NCI-H1915
Procedure, shortened: as §1

NCI-H1944 = test system: NCI-H1944
Procedure, shortened: as §1

NCI-H1975 = test system: NCI-H1975
Procedure, shortened: as §1

NCI-H2085 = test system: NCI-H2085
Procedure, shortened: as §1

NCI-H2170 = test system: NCI-H2170
Procedure, shortened: as §1

NCI-H358 = test system: NCI-H358
Procedure, shortened: as §1

NCI-H460 = test system: NCI-H460
Procedure, shortened: as §1

SK-LU-1 = test system: SK-LU-1
Procedure, shortened: as §1

SW 900 = test system: SW 900
Procedure, shortened: as §1

UMC-11 = test system: UMC-11
Procedure, shortened: as §1

Question: How did the relative viability (A-427; first compound 0.005 µM) turn out when CC1(C)CCC(c2ccc(Cl)cc2)=C(CN2CCN(c3ccc(C(=O)NS(=O)(=O)c4ccc(N[C@H](CCN5CCOCC5)CSc5ccccc5)c(S(=O)(=O)C(F)(F)F)c4)cc3)CC2)C1 [Navitoclax] + CCNC(=O)c1noc(-c2cc(C(C)C)c(O)cc2O)c1-c1ccc(CN2CCOCC2)cc1 [Luminespib] (partner 0.01 µM) was run?
Answer: 0.902

Question: What about the relative viability (A-427; first compound 0.01581 µM) of the same molecule?
Answer: 0.833

Question: What about the relative viability (A-427; first compound 0.05 µM) of the same molecule?
Answer: 0.804

Question: And the relative viability (A-427; first compound 0.1581 µM)?
Answer: 0.908

Question: What about the relative viability (A-427; first compound 0.5 µM) of the same molecule?
Answer: 0.948

Question: What about the relative viability (COR-L 105; first compound 0.005 µM) of the same molecule?
Answer: 0.801

Question: And the relative viability (COR-L 105; first compound 0.01581 µM)?
Answer: 1.2

Question: And the relative viability (COR-L 105; first compound 0.05 µM)?
Answer: 0.974

Question: And the relative viability (COR-L 105; first compound 0.1581 µM)?
Answer: 0.701

Question: What about the relative viability (COR-L 105; first compound 0.5 µM) of the same molecule?
Answer: 0.544

Question: And the relative viability (EPLC-272H; first compound 0.005 µM)?
Answer: 0.391

Question: And the relative viability (EPLC-272H; first compound 0.05 µM)?
Answer: 1

Question: And the relative viability (EPLC-272H; first compound 0.1581 µM)?
Answer: 0.647

Question: And the relative viability (EPLC-272H; first compound 0.5 µM)?
Answer: 0.133

Question: And the relative viability (HOP-62; first compound 0.005 µM)?
Answer: 0.913

Question: What about the relative viability (HOP-62; first compound 0.01581 µM) of the same molecule?
Answer: 0.937

Question: What about the relative viability (HOP-62; first compound 0.05 µM) of the same molecule?
Answer: 0.895

Question: What about the relative viability (HOP-62; first compound 0.1581 µM) of the same molecule?
Answer: 0.894

Question: What about the relative viability (HOP-62; first compound 0.5 µM) of the same molecule?
Answer: 0.993

Question: And the relative viability (LC-2-ad; first compound 0.005 µM)?
Answer: 0.993

Question: And the relative viability (LC-2-ad; first compound 0.01581 µM)?
Answer: 1.16

Question: And the relative viability (LC-2-ad; first compound 0.05 µM)?
Answer: 0.912

Question: And the relative viability (LC-2-ad; first compound 0.1581 µM)?
Answer: 0.907

Question: And the relative viability (LC-2-ad; first compound 0.5 µM)?
Answer: 0.856

Question: And the relative viability (LCLC-97TM1; first compound 0.005 µM)?
Answer: 0.74

Question: And the relative viability (LCLC-97TM1; first compound 0.01581 µM)?
Answer: 0.8

Question: What about the relative viability (LCLC-97TM1; first compound 0.05 µM) of the same molecule?
Answer: 0.733

Question: What about the relative viability (LCLC-97TM1; first compound 0.1581 µM) of the same molecule?
Answer: 0.779

Question: What about the relative viability (LCLC-97TM1; first compound 0.5 µM) of the same molecule?
Answer: 0.857

Question: What about the relative viability (LU99A; first compound 0.005 µM) of the same molecule?
Answer: 0.221

Question: What about the relative viability (LU99A; first compound 0.01581 µM) of the same molecule?
Answer: 0.217

Question: And the relative viability (LU99A; first compound 0.05 µM)?
Answer: 0.154

Question: What about the relative viability (LU99A; first compound 0.1581 µM) of the same molecule?
Answer: 0.168

Question: And the relative viability (LU99A; first compound 0.5 µM)?
Answer: 0.274

Question: What about the relative viability (LXF-289; first compound 0.005 µM) of the same molecule?
Answer: 0.631

Question: And the relative viability (LXF-289; first compound 0.01581 µM)?
Answer: 0.754

Question: What about the relative viability (LXF-289; first compound 0.05 µM) of the same molecule?
Answer: 0.725

Question: What about the relative viability (LXF-289; first compound 0.1581 µM) of the same molecule?
Answer: 0.584

Question: What about the relative viability (LXF-289; first compound 0.5 µM) of the same molecule?
Answer: 0.636

Question: And the relative viability (NCI-H1755; first compound 0.005 µM)?
Answer: 0.381

Question: And the relative viability (NCI-H1755; first compound 0.01581 µM)?
Answer: 0.393

Question: And the relative viability (NCI-H1755; first compound 0.05 µM)?
Answer: 0.332

Question: And the relative viability (NCI-H1755; first compound 0.1581 µM)?
Answer: 0.173

Question: What about the relative viability (NCI-H1755; first compound 0.5 µM) of the same molecule?
Answer: 0.426

Question: And the relative viability (NCI-H1792; first compound 0.005 µM)?
Answer: 0.456

Question: What about the relative viability (NCI-H1792; first compound 0.01581 µM) of the same molecule?
Answer: 0.685

Question: And the relative viability (NCI-H1792; first compound 0.05 µM)?
Answer: 0.351

Question: What about the relative viability (NCI-H1792; first compound 0.5 µM) of the same molecule?
Answer: 0.527

Question: And the relative viability (NCI-H1793; first compound 0.005 µM)?
Answer: 0.262

Question: What about the relative viability (NCI-H1793; first compound 0.01581 µM) of the same molecule?
Answer: 0.177

Question: What about the relative viability (NCI-H1793; first compound 0.1581 µM) of the same molecule?
Answer: 0.216

Question: What about the relative viability (NCI-H1793; first compound 0.5 µM) of the same molecule?
Answer: 0.17

Question: And the relative viability (NCI-H1915; first compound 0.005 µM)?
Answer: 0.749

Question: And the relative viability (NCI-H1915; first compound 0.01581 µM)?
Answer: 0.778

Question: What about the relative viability (NCI-H1915; first compound 0.05 µM) of the same molecule?
Answer: 0.793

Question: What about the relative viability (NCI-H1915; first compound 0.1581 µM) of the same molecule?
Answer: 0.746

Question: What about the relative viability (NCI-H1915; first compound 0.5 µM) of the same molecule?
Answer: 0.829

Question: And the relative viability (NCI-H1944; first compound 0.005 µM)?
Answer: 0.731

Question: And the relative viability (NCI-H1944; first compound 0.01581 µM)?
Answer: 0.717

Question: What about the relative viability (NCI-H1944; first compound 0.05 µM) of the same molecule?
Answer: 0.553

Question: And the relative viability (NCI-H1944; first compound 0.1581 µM)?
Answer: 0.733

Question: And the relative viability (NCI-H1944; first compound 0.5 µM)?
Answer: 0.665

Question: And the relative viability (NCI-H1975; first compound 0.005 µM)?
Answer: 0.24

Question: What about the relative viability (NCI-H1975; first compound 0.01581 µM) of the same molecule?
Answer: 0.309

Question: And the relative viability (NCI-H1975; first compound 0.05 µM)?
Answer: 0.191

Question: What about the relative viability (NCI-H1975; first compound 0.1581 µM) of the same molecule?
Answer: 0.118

Question: And the relative viability (NCI-H1975; first compound 0.5 µM)?
Answer: 0.132

Question: And the relative viability (NCI-H2085; first compound 0.005 µM)?
Answer: 0.488

Question: What about the relative viability (NCI-H2085; first compound 0.01581 µM) of the same molecule?
Answer: 0.538

Question: And the relative viability (NCI-H2085; first compound 0.05 µM)?
Answer: 0.484

Question: What about the relative viability (NCI-H2085; first compound 0.1581 µM) of the same molecule?
Answer: 0.46

Question: What about the relative viability (NCI-H2085; first compound 0.5 µM) of the same molecule?
Answer: 0.383

Question: And the relative viability (NCI-H2170; first compound 0.005 µM)?
Answer: 0.519

Question: What about the relative viability (NCI-H2170; first compound 0.01581 µM) of the same molecule?
Answer: 0.806

Question: And the relative viability (NCI-H2170; first compound 0.05 µM)?
Answer: 0.552

Question: What about the relative viability (NCI-H2170; first compound 0.1581 µM) of the same molecule?
Answer: 0.67

Question: And the relative viability (NCI-H2170; first compound 0.5 µM)?
Answer: 0.538

Question: And the relative viability (NCI-H358; first compound 0.005 µM)?
Answer: 0.418

Question: What about the relative viability (NCI-H358; first compound 0.01581 µM) of the same molecule?
Answer: 0.325

Question: What about the relative viability (NCI-H358; first compound 0.05 µM) of the same molecule?
Answer: 0.264

Question: What about the relative viability (NCI-H358; first compound 0.1581 µM) of the same molecule?
Answer: 0.388

Question: And the relative viability (NCI-H358; first compound 0.5 µM)?
Answer: 0.242

Question: What about the relative viability (NCI-H460; first compound 0.005 µM) of the same molecule?
Answer: 0.0372

Question: What about the relative viability (NCI-H460; first compound 0.01581 µM) of the same molecule?
Answer: 0.0368

Question: And the relative viability (NCI-H460; first compound 0.05 µM)?
Answer: 0.0365

Question: What about the relative viability (NCI-H460; first compound 0.1581 µM) of the same molecule?
Answer: 0.0311

Question: What about the relative viability (NCI-H460; first compound 0.5 µM) of the same molecule?
Answer: 0.033

Question: What about the relative viability (SK-LU-1; first compound 0.005 µM) of the same molecule?
Answer: 0.205

Question: What about the relative viability (SK-LU-1; first compound 0.01581 µM) of the same molecule?
Answer: 0.179

Question: What about the relative viability (SK-LU-1; first compound 0.05 µM) of the same molecule?
Answer: 0.199

Question: And the relative viability (SK-LU-1; first compound 0.1581 µM)?
Answer: 0.199

Question: What about the relative viability (SK-LU-1; first compound 0.5 µM) of the same molecule?
Answer: 0.201

Question: And the relative viability (SW 900; first compound 0.005 µM)?
Answer: 0.146

Question: What about the relative viability (SW 900; first compound 0.01581 µM) of the same molecule?
Answer: 0.163

Question: And the relative viability (SW 900; first compound 0.05 µM)?
Answer: 0.177

Question: And the relative viability (SW 900; first compound 0.1581 µM)?
Answer: 0.199

Question: What about the relative viability (SW 900; first compound 0.5 µM) of the same molecule?
Answer: 0.132

Question: What about the relative viability (UMC-11; first compound 0.005 µM) of the same molecule?
Answer: 0.986

Question: And the relative viability (UMC-11; first compound 0.01581 µM)?
Answer: 1.07

Question: What about the relative viability (UMC-11; first compound 0.05 µM) of the same molecule?
Answer: 1.13

Question: What about the relative viability (UMC-11; first compound 0.1581 µM) of the same molecule?
Answer: 1.05

Question: What about the relative viability (UMC-11; first compound 0.5 µM) of the same molecule?
Answer: 0.829
